Molecules are shown by their SMILES. Where a name gives a salt, the structure may show the parent alone.

Series [1] concerns human rhinovirus subtype 14 (HRV 14). Briefly: plaque-reduction assay, HeLa cells infected with human rhinovirus subtype 14. The series is classed as cell-based. Here is the method:
For the purpose of the study HeLa cells were inocculated with human rhinovirus subtype 14 (HRV 14), isolated from nasopharyngeal secretions. Ambroxol hydrochloride (AX) was chosen as the compound for antiviral testing. The antiviral activity of the test substance was evaluated in the plaque-reduction assay. To test the effect of AX on rhinovirus replication HeLa cells were infected with a multiplicity of infection (MOI) of 0.0002, without (control for 100% infection) or in the presence of AX at concentrations between 0.3 and 10 μg/ml. Infected cell cultures were cultivated for three days. Inhibition of virus plaques was evaluated microscopically and compared with controls.
(In general: Plaques are areas of infected cells; plaque reduction assays count them against a control.)

A further series has as its system HeLa cells. The series is classed as cell-based. The settings on record: human, 5 days. As for the experimental part:
As a first step an assay on possible toxic effects of AX was performed by incubating HeLa cells with increasing dilutions of the test substance for 5 days.
Cell morphology was checked using a microscope. In addition, an assay for mitochondrial enzyme activity (MTT-assay) was used to evaluate the vitality of cells. No changes in cell morphology and enzyme activity were found at concentrations of 10 μg AX/ml and below.

Another series deals with influenza A virus. The following applies: mice infected with influenza A virus; Yang et al., Eur. Resp. J. 19, 952-958 (2002); cited from earlier work.

One may read the inhibition as the change of the read-out against control, counted positive when it falls. With `Nc1c(Br)cc(Br)cc1CN[C@H]1CC[C@H](O)CC1` [Ambroxol hydrochloride], in series [1] (Human rhinovirus sp., 72 h, 0.3 μg/ml, HeLa cells, HRV 14, MOI 0.0002, three days, average of 6 individual tests, read-out: relative inhibition), the inhibition at 0.3 µg/mL amounted to 9.71%. In addition, the inhibition at 0.6 µg/mL in series [1] (Human rhinovirus sp., 72 h, 0.6 μg/ml, HeLa cells, HRV 14, MOI 0.0002, three days, average of 6 individual tests, read-out: relative inhibition) was determined as 14.4%. The inhibition at 1.2 µg/mL in series [1] (Human rhinovirus sp., 72 h, 1.2 μg/ml, HeLa cells, HRV 14, MOI 0.0002, three days, average of 6 individual tests, read-out: relative inhibition) is 34.3%. The inhibition at 2.5 µg/mL in series [1] (Human rhinovirus sp., 72 h, 2.5 μg/ml, HeLa cells, HRV 14, MOI 0.0002, three days, average of 6 individual tests, read-out: relative inhibition) was 36.8%. Further, the inhibition at 5 µg/mL in series [1] (Human rhinovirus sp., 72 h, 5 μg/ml, HeLa cells, HRV 14, MOI 0.0002, three days, average of 6 individual tests, read-out: relative inhibition) turned out to be 63.7%. Besides, in series [1] (Human rhinovirus sp., 72 h, 10 μg/ml, HeLa cells, HRV 14, MOI 0.0002, three days, average of 6 individual tests, read-out: relative inhibition), the inhibition at 10 µg/mL turned out to be 70.7%. Also, the rhinovirus replication result in series [1] (conclusion from Table 6) is “effectively blocks rhinovirus replication”. Also, in the series on HeLa cells, the “concentrations at which no changes in cell morphology were found” value was at most 10 μg AX/ml and the “concentrations at which no changes in enzyme activity were found” value is at most 10 μg AX/ml.

As for `Nc1c(Br)cc(Br)cc1CNC1CCC(O)CC1` (stereo not drawn) [Ambroxol, trans-4-(2-amino-3,5-dibromobenzylamino)-cyclohexanole], in the series with influenza A virus, the survival rate entry was “increase the survival rate”.

Values taken from patent US20080319087A1, “Use of Ambroxol for the Treatment of Rhinovirus Infections” (priority 2005, published 2008).
